T/C data for 5 molecules are collected here from PubChem BioAssay AID272 (DTP/NCI, 2004).

This test deals with Lewis lung carcinoma i.m., BDF1 mice, T/C %. As to the kind of experiment: NCI In Vivo Anticancer Drug Screen. Data for tumor model Lewis Lung Carcinoma (intramuscular) in B6D2F1 (BDF1) mice. An outline of the steps:
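Value is the ratio of a treated-group measurement (T) to the matching vehicle-control measurement (C), using either survival or tumour size in mice bearing transplanted tumours.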

“And” between values parts separate entries of the source, which are not always exact repeats. Equal values may be shown once. Inconclusive results are not listed.

For the molecule `N[C@@H](Cc1ccc(N(CCCl)CCCl)cc1)C(=O)O`, the T/C was 55 % of control (endpoint: mean tumor weight, dose: 0.38 mg/kg/injection, schedule: Q01DX011 (ip), vehicle: other, higher = larger tumour); 86 % of control (endpoint: mean tumor weight, dose: 0.38 mg/kg/injection, schedule: Q01DX011 (ip), vehicle: saline, higher = larger tumour); 48 % of control (endpoint: mean tumor weight, dose: 0.75 mg/kg/injection, schedule: Q01DX011 (ip), vehicle: other, higher = larger tumour); 77 % of control (endpoint: mean tumor weight, dose: 0.75 mg/kg/injection, schedule: Q01DX011 (ip), vehicle: saline, higher = larger tumour); 69 % of control (endpoint: mean tumor weight, dose: 1.5 mg/kg/injection, schedule: Q01DX011 (ip), vehicle: other, higher = larger tumour); 29 % of control (endpoint: mean tumor weight, dose: 3.0 mg/kg/injection, schedule: Q01DX011 (ip), vehicle: other, higher = larger tumour). In addition, the T/C is 47 % of control and 59 % of control (endpoint: mean tumor weight, dose: 3.0 mg/kg/injection, schedule: Q01DX011 (ip), vehicle: saline, higher = larger tumour); 111 % of control (endpoint: median survival time, dose: 0.38 mg/kg/injection, schedule: Q01DX011 (ip), vehicle: other, higher = longer survival); 105 % of control and 112 % of control (endpoint: median survival time, dose: 0.38 mg/kg/injection, schedule: Q01DX011 (ip), vehicle: saline, higher = longer survival); 104 % of control and 116 % of control (endpoint: median survival time, dose: 0.6 mg/kg/injection, schedule: Q01DX011 (ip), vehicle: saline, higher = longer survival); 118 % of control (endpoint: median survival time, dose: 0.75 mg/kg/injection, schedule: Q01DX011 (ip), vehicle: other, higher = longer survival); 110 % of control and 112 % of control and 120 % of control (endpoint: median survival time, dose: 0.75 mg/kg/injection, schedule: Q01DX011 (ip), vehicle: saline, higher = longer survival). Also, the T/C (endpoint: median survival time, dose: 1.2 mg/kg/injection, schedule: Q01DX011 (ip), vehicle: saline, higher = longer survival) was 108 % of control; the T/C (endpoint: median survival time, dose: 1.5 mg/kg/injection, schedule: Q01DX011 (ip), vehicle: other, higher = longer survival) was 101 % of control; the T/C (endpoint: median survival time, dose: 1.5 mg/kg/injection, schedule: Q01DX011 (ip), vehicle: saline, higher = longer survival) was 91 % of control; the T/C (endpoint: median survival time, dose: 2.5 mg/kg/injection, schedule: Q01DX011 (ip), vehicle: saline, higher = longer survival) was 103 % of control; the T/C (endpoint: median survival time, dose: 3.24 mg/kg/injection, schedule: Q01DX001 (ip), vehicle: saline, higher = longer survival) is 108 % of control; the T/C (endpoint: median survival time, dose: 5.4 mg/kg/injection, schedule: Q01DX001 (ip), vehicle: saline, higher = longer survival) was 119 % of control.

In the case of `COc1ccc(C(=O)/C(Br)=C/C(=O)O)cc1`, the T/C (endpoint: mean tumor weight, dose: 40.0 mg/kg/injection, schedule: Q01DX011 (ip), vehicle: saline, higher = larger tumour) was 48 % of control.

With `COc1ccc([I+]c2ccc(OC)cc2)cc1`, the T/C runs as follows: (endpoint: median survival time, dose: 0.78 mg/kg/injection, schedule: Q01DX011 (ip), vehicle: saline, higher = longer survival) 110 % of control; (endpoint: median survival time, dose: 1.56 mg/kg/injection, schedule: Q01DX011 (ip), vehicle: saline, higher = longer survival) 106 % of control; (endpoint: median survival time, dose: 3.12 mg/kg/injection, schedule: Q01DX011 (ip), vehicle: saline, higher = longer survival) 98 % of control.

`O=P1(N(CCCl)CCCl)NCCCO1` (configuration not stated): the T/C was 40 % of control (endpoint: mean tumor weight (est.), dose: 65.0 mg/kg/injection, schedule: Q01DX011 (ip), vehicle: saline, higher = larger tumour); 44 % of control (endpoint: mean tumor weight, dose: 65.0 mg/kg/injection, schedule: Q01DX001 (sc), vehicle: saline, higher = larger tumour); 58 % of control (endpoint: mean tumor weight, dose: 100.0 mg/kg/injection, schedule: Q01DX001 (ip), vehicle: saline, higher = larger tumour); 39 % of control (endpoint: mean tumor weight, dose: 108.0 mg/kg/injection, schedule: Q01DX001 (sc), vehicle: saline, higher = larger tumour); 13 % of control (endpoint: mean tumor weight, dose: 180.0 mg/kg/injection, schedule: Q01DX001 (ip), vehicle: saline, higher = larger tumour); 27 % of control (endpoint: mean tumor weight, dose: 180.0 mg/kg/injection, schedule: Q01DX001 (sc), vehicle: saline, higher = larger tumour). The T/C by setting is: (endpoint: mean tumor weight, dose: 300.0 mg/kg/injection, schedule: Q01DX001 (sc), vehicle: saline, higher = larger tumour) 31 % of control; (endpoint: median survival time, dose: 6.25 mg/kg/injection, schedule: Q01DX009 (ip), vehicle: saline, higher = longer survival) 106 % of control; (endpoint: median survival time, dose: 12.5 mg/kg/injection, schedule: Q01DX009 (ip), vehicle: saline, higher = longer survival) 116 % of control; (endpoint: median survival time, dose: 12.5 mg/kg/injection, schedule: Q03DX010 (ip), vehicle: saline, higher = longer survival) 109 % of control and 110 % of control; (endpoint: median survival time, dose: 19.0 mg/kg/injection, schedule: Q01DX007 (sc), vehicle: saline, higher = longer survival) 100 % of control; (endpoint: median survival time, dose: 23.0 mg/kg/injection, schedule: Q08DX003 (sc), vehicle: saline, higher = longer survival) 121 % of control. Moreover, the T/C was 114 % of control (endpoint: median survival time, dose: 25.0 mg/kg/injection, schedule: Q01DX009 (ip), vehicle: saline, higher = longer survival); 100 % of control and 105 % of control (endpoint: median survival time, dose: 39.0 mg/kg/injection, schedule: Q08DX003 (ip), vehicle: saline, higher = longer survival); 184 % of control and 186 % of control (endpoint: median survival time, dose: 39.0 mg/kg/injection, schedule: Q08DX003 (sc), vehicle: saline, higher = longer survival); 104 % of control and 106 % of control (endpoint: median survival time, dose: 50.0 mg/kg/injection, schedule: Q01DX001 (ip), vehicle: methylcellulose (MC), higher = longer survival); 114 % of control (endpoint: median survival time, dose: 50.0 mg/kg/injection, schedule: Q01DX009 (ip), vehicle: saline, higher = longer survival); 95 % of control and 105 % of control (endpoint: median survival time, dose: 52.0 mg/kg/injection, schedule: Q01DX007 (sc), vehicle: saline, higher = longer survival). Moreover, the T/C by setting is: (endpoint: median survival time, dose: 65.0 mg/kg/injection, schedule: Q08DX003 (ip), vehicle: saline, higher = longer survival) 161 % of control; (endpoint: median survival time, dose: 65.0 mg/kg/injection, schedule: Q08DX003 (sc), vehicle: saline, higher = longer survival) 191 % of control and 192 % of control; (endpoint: median survival time, dose: 65.0 mg/kg/injection, schedule: Q14DX002 (ip), vehicle: saline, higher = longer survival) 168 % of control; (endpoint: median survival time, dose: 86.0 mg/kg/injection, schedule: Q01DX007 (sc), vehicle: saline, higher = longer survival) 78 % of control; (endpoint: median survival time, dose: 100.0 mg/kg/injection, schedule: Q01DX001 (ip), vehicle: methylcellulose (MC), higher = longer survival) 198 % of control and 235 % of control; (endpoint: median survival time, dose: 100.0 mg/kg/injection, schedule: Q14DX002 (ip), vehicle: saline, higher = longer survival) 159 % of control. Also, the T/C reads like this: (endpoint: median survival time, dose: 108.0 mg/kg/injection, schedule: Q08DX003 (ip), vehicle: saline, higher = longer survival) 89 % of control; (endpoint: median survival time, dose: 108.0 mg/kg/injection, schedule: Q08DX003 (sc), vehicle: saline, higher = longer survival) 173 % of control and 186 % of control; (endpoint: median survival time, dose: 108.0 mg/kg/injection, schedule: Q14DX002 (ip), vehicle: saline, higher = longer survival) 154 % of control; (endpoint: median survival time, dose: 144.0 mg/kg/injection, schedule: Q01DX001 (sc), vehicle: saline, higher = longer survival) 151 % of control; (endpoint: median survival time, dose: 180.0 mg/kg/injection, schedule: Q08DX003 (ip), vehicle: saline, higher = longer survival) 68 % of control; (endpoint: median survival time, dose: 180.0 mg/kg/injection, schedule: Q08DX003 (sc), vehicle: saline, higher = longer survival) 100 % of control and 103 % of control. Further, the T/C was 113 % of control (endpoint: median survival time, dose: 180.0 mg/kg/injection, schedule: Q14DX002 (ip), vehicle: saline, higher = longer survival); 39 % of control (endpoint: median survival time, dose: 200.0 mg/kg/injection, schedule: Q01DX001 (ip), vehicle: methylcellulose (MC), higher = longer survival); 30 % of control (endpoint: median survival time, dose: 200.0 mg/kg/injection, schedule: Q03DX010 (ip), vehicle: saline, higher = longer survival); 122 % of control (endpoint: median survival time, dose: 200.0 mg/kg/injection, schedule: Q14DX002 (ip), vehicle: saline, higher = longer survival); 174 % of control and 180 % of control (endpoint: median survival time, dose: 240.0 mg/kg/injection, schedule: Q01DX001 (sc), vehicle: saline, higher = longer survival); 63 % of control (endpoint: median survival time, dose: 300.0 mg/kg/injection, schedule: Q01DX001 (ip), vehicle: saline, higher = longer survival). The T/C is, setting by setting: (endpoint: median survival time, dose: 300.0 mg/kg/injection, schedule: Q01DX001 (sc), vehicle: saline, higher = longer survival) 160 % of control; (endpoint: median survival time, dose: 300.0 mg/kg/injection, schedule: Q08DX003 (ip), vehicle: saline, higher = longer survival) 57 % of control; (endpoint: median survival time, dose: 400.0 mg/kg/injection, schedule: Q01DX001 (ip), vehicle: methylcellulose (MC), higher = longer survival) 22 % of control; (endpoint: median survival time, dose: 400.0 mg/kg/injection, schedule: Q01DX001 (ip), vehicle: saline, higher = longer survival) 60 % of control; (endpoint: median survival time, dose: 400.0 mg/kg/injection, schedule: Q01DX001 (sc), vehicle: saline, higher = longer survival) 49 % of control; (endpoint: median survival time, dose: 460.0 mg/kg/injection, schedule: Q01DX001 (ip), vehicle: saline, higher = longer survival) 18 % of control. Besides, the T/C (endpoint: median tumor weight (est.), dose: 65.0 mg/kg/injection, schedule: Q01DX001 (ip), vehicle: saline, higher = larger tumour) is 27 % of control.

Consider `FC(F)c1nc2nc(Cl)c(Cl)nc2[nH]1`, for which the T/C by setting is: (endpoint: median survival time, dose: 4.0 mg/kg/injection, schedule: Q01DX011 (ip), vehicle: saline, higher = longer survival) 92 % of control; (endpoint: median survival time, dose: 64.0 mg/kg/injection, schedule: Q01DX011 (ip), vehicle: saline, higher = longer survival) 96 % of control.
